Measurements from ChEMBL document CHEMBL5316284, “Structural Determinants of Indole-2-carboxamides: Identification of Lead Acetamides with Pan Antimycobacterial Activity” (J Med Chem, 2023).
≈ marks a conversion by molar mass, not a printed value. Calls of active or inactive are those of the source. The calls are words filed in the database; no cut-off is given here.

What was measured:
Mycobacterium kansasii = assay: Antimycobacterial activity against Mycobacterium kansasii ATCC 1279 assessed as inhibition of bacterial growth by visual analysis; format: functional
[1] = Cytotoxicity against mouse HEI-OC1 cells assessed as inhibition of cell growth measured after 72 hrs by MTT assay; format: toxicity, cell-based
[2] = Antimycobacterial activity against Mycobacterium avium subsp. avium 2585R assessed as inhibition of bacterial growth by visual analysis; format: functional
[3] = Kinetic solubility of compound at pH 7.4 incubated for 6 hrs by LC-MS/MS analysis; format: physicochemical; settings: buffer, read-out: Kinetic_solubility
[4] = system: Mycolicibacterium fortuitum; assay: Antimycobacterial activity against Mycobacterium fortuitum ATCC 6841 assessed as inhibition of bacterial growth by visual analysis; format: functional
[5] = Metabolic stability in human liver S9 fraction assessed as parent compound remaining at 5 ug/ml after 90 mins in presence of NADPH by LC/MS analysis; format: ADME, subcellular; settings: s9, 1.5 h, dose 5 µg/ml
[6] = Permeability of the compound by PAMPA method; format: ADME
[7] = Cytotoxicity against human WI26VA4 cells assessed as inhibition of cell growth measured after 72 hrs by MTT assay; format: toxicity, cell-based
[8] = system: Mycobacteroides abscessus; assay: Antimycobacterial activity against Mycobacterium abscessus ATCC 19977 harbouring mmpL3 L551S mutant gene assessed as inhibition of bacterial growth by visual analysis; format: functional
[9] = Binding affinity to Mycobacterium tuberculosis MmpL3 assessed as dissociation constant by SPR analysis
[10] = system: Mycobacteroides abscessus; assay: Antimycobacterial activity against Mycobacterium abscessus […] assessed as inhibition of mycolic acid biosynthesis at 1 to 10 times of MIC incubated for 3 hrs in presence of [1,2-14C]-acetate by TLC analysis; format: functional, organism-based
[11] = system: Mycobacteroides abscessus; assay: Antimycobacterial activity against Mycobacterium abscessus […] assessed as decrease in mycolic acid transfer onto cell wall arabinogalactan incubated for 3 hrs in presence of [1,2-14C]-acetate by TLC analysis; format: functional, organism-based
[12] = system: Mycobacteroides abscessus; assay: Antimycobacterial activity against Mycobacterium abscessus […] assessed as decrease in mycolic acid transfer onto cell wall trehalose dimycolate incubated for 3 hrs in presence of [1,2-14C]-acetate by TLC analysis; format: functional, organism-based
[13] = Selectivity index, ratio of IC50 for Cytotoxicity against human WI26VA4 cells to MIC for antimycobacterial activity against Mycobacterium tuberculosis H37Rv mc2 6206; format: toxicity, cell-based; settings: read-out: Selectivity Index
[14] = system: Mycobacterium tuberculosis; assay: Antimycobacterial activity against Mycobacterium tuberculosis H37Rv mc2 6206 assessed as inhibition of bacterial growth measured after 7 days by visual analysis; format: functional; settings: H37Rv mc2 6206, 168 h, time 7 day
[15] = system: Mycobacterium tuberculosis; assay: Displacement of North 114 from Mycobacterium tuberculosis wild type MmpL3 expressed in Mycobacterium smegmatis upto 8 uM incubated for 15 mins by flow cytometry based competition binding assay
Mycobacteroides chelonae = assay: Antimycobacterial activity against Mycobacteroides chelonae ATCC 35752 assessed as inhibition of bacterial growth by visual analysis; format: functional
[16] = system: Mycobacteroides abscessus; assay: Antimycobacterial activity against Mycobacterium abscessus ATCC 19977 harbouring mmpL3 A309P mutant gene assessed as inhibition of bacterial growth by visual analysis; format: functional
[17] = Selectivity index, ratio of IC50 for Cytotoxicity against human WI26VA4 cells to MIC for antimycobacterial activity against Mycobacterium abscessus […]; format: toxicity, cell-based; settings: read-out: Selectivity Index
[18] = Binding affinity to Mycobacterium tuberculosis MmpL3 assessed as equilibrium constant by SPR analysis
[19] = Plasma protein binding in human at 10 ug/ml incubated for 4 hrs under shaking condition by LC/MS/MS analysis; format: ADME, cell-free; settings: at 10 µg/mL, read-out: PPB (converted)
[20] = Metabolic stability in mouse liver S9 fraction assessed as parent compound remaining at 5 ug/ml after 90 mins in presence of NADPH by LC/MS analysis; format: ADME, subcellular; settings: s9, 1.5 h, dose 5 µg/ml
[21] = system: Mycobacteroides abscessus; assay: Antimycobacterial activity against Mycobacterium abscessus ATCC 19977 harbouring wild type mmpL3 gene assessed as inhibition of bacterial growth by visual analysis; format: functional
[22] = system: Mycobacterium intracellulare subsp. chimaera; assay: Antimycobacterial activity against Mycobacterium intracellulare subsp. chimaera 1501948 assessed as inhibition of bacterial growth by visual analysis; format: functional
[23] = system: Mycobacterium intracellulare; assay: Antimycobacterial activity against Mycobacterium intracellulare 1956 assessed as inhibition of bacterial growth by visual analysis; format: functional
[24] = system: Mycobacteroides abscessus; assay: Antimycobacterial activity against Mycobacterium Mycobacterium abscessus ATCC 19977 harbouring mmpL3 I306S mutant gene assessed as inhibition of bacterial growth by visual analysis; format: functional
[25] = Cytotoxicity against mouse HEI-OC1 cells assessed as viable cells upto 100 uM measured after 72 hrs by MTT assay; format: toxicity, cell-based; settings: hei-oc1, 72 h

Row | Structure (SMILES) | MIC (Mycobacterium kansasii) [µg/mL] | MIC [2] [µg/mL] | solubility kinetic at 6 h [3] [µg/mL] | MIC [4] [µg/mL] | t1/2 [5] [h] | permeability [6] | IC50 [7] [µg/mL] | MIC [8] [µg/mL] | Kd [9] [s⁻¹] | Activity [10] | Activity [11] | Activity [12] | selectivity ratio [13] | MIC [14] [µg/mL] | Activity [15] | MIC (Mycobacteroides chelonae) [µg/mL] | MIC [16] [µg/mL] | selectivity ratio [17] | Kd [18] [µM] | fraction unbound at 4 h, 10 ug/ml [19] | further results
1 | C[C@@H]1[C@H]2C[C@@H](C[C@H]1NC(=O)CNc1cccc(Cl)c1)C2(C)C | 8 (≈ 24.9 µM) | 8 (≈ 24.9 µM) | 16.3 (≈ 50.8 µM) | 2 (≈ 6.23 µM) | 5.3 | 1.33 10^-6 cm/s | > 20 | 0.5 (≈ 1.56 µM) | 1.22 | inactive | Active | Active | > 80 | 0.25 (≈ 0.779 µM) | Active | 4 (≈ 12.5 µM) | > 64 | > 40 | 800 | 0.059 | IC50 at 72 h [1]: 14.1 µM; t1/2 [20]: 4.6 h; MIC [21]: 0.5 µg/mL (≈ 1.56 µM); MIC [22]: 16 µg/mL (≈ 49.9 µM); MIC [23]: 8 µg/mL (≈ 24.9 µM); MIC [24]: 1 µg/mL (≈ 3.12 µM)
2 | O=C(CNc1cccc(OC(F)(F)F)c1)NC12CC3CC(CC(C3)C1)C2 | 8 (≈ 21.7 µM) | 8 (≈ 21.7 µM) | 20.4 (≈ 55.4 µM) | 2 (≈ 5.43 µM) | 0.7 | 3.61 10^-6 cm/s | > 20 | 0.5 (≈ 1.36 µM) | 1.23 | inactive | Active | Active | > 80 | 0.25 (≈ 0.679 µM) | Active | 4 (≈ 10.9 µM) | > 64 | > 40 | 780 | 0.051 | Activity [25]: 70.8%; t1/2 [20]: 0.4 h; MIC [21]: 0.5 µg/mL (≈ 1.36 µM); MIC [22]: 16 µg/mL (≈ 43.4 µM); MIC [23]: 8 µg/mL (≈ 21.7 µM); MIC [24]: 1 µg/mL (≈ 2.71 µM)
